Molecular target: T1, human GnRH receptor (Homo sapiens, UniProt P30968)
T1 construct: expressed in transfected cells; host or cells: RBL cells, stably transfected (in general)
T1 sequence (P30968 1-328): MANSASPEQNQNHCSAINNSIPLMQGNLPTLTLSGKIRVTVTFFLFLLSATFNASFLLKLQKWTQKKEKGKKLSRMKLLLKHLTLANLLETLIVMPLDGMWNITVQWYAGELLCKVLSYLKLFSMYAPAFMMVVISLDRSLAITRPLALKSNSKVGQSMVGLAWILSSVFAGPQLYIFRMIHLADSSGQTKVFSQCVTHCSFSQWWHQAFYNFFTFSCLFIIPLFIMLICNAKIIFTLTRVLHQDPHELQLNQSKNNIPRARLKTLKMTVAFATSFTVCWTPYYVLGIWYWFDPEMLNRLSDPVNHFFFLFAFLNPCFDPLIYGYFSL
Experiment: Peptide competition radioligand binding displacement assay, human GnRH receptor membranes
Details: one or more of the peptide competition human receptor binding assays
Protocol: cDNA's of human, rhesus macaque, rabbit, dog and rat GnRH receptors are cloned into pcDNA3.1 (+) (Invitrogen). Full length sequences of all receptors are confirmed by DNA sequencing. HEK 293, CHO, COS-7, or rat basophilic leukemia (RBL) cells are stably transfected with human, rat, or macaque GnRH receptors and high expressing single cell clones (Bmax≧0.4 pMol/mg membrane protein) are isolated and maintained in Dulbecco's Modified Eagles Medium (DMEM) with following supplements: 10 mM HEPES; 2 mM L-glutamine; 1 mM Sodium Pyruvate; 50 U/mL penicillin, 50 μg/mL streptomycin; 10% Heat-inactivated Fetal Bovine Serum and 200 μg/mL Geneticin (G-418-Sulfate). Non-essential amino acids (0.1 mM) (Irvine Scientific; Santa Ana, Calif.) are included in the RBL cell media.
In general, initial peptide radioligand binding assays are carried out using membranes from stably transfected RBL cells. RBL stable clones are found to more consistently express high levels of GnRH receptor and are therefore used for subsequent binding studies as well as Ca^++ flux and inositol phosphate accumulation assays. Transiently transfected COS-7 cells are used for preparation of membranes containing GnRH receptors from multiple species (as well as those of mutant receptors for other studies) because of the convenience for rapidly analyzing multiple receptors.
HEK293 cells stably transfected with the human GnRH receptor are grown for two days after achieving confluence then are harvested by striking tissue culture flasks against a firm surface. Cells are collected by centrifugation at 1000 g for 5 minutes. Cell pellets are resuspended in 5% sucrose and homogenized using a polytron homogenizer for two 15 second homogenization steps. Cell homogenates are then centrifuged for 5 minutes at 3000 g to remove nuclei and the supernatant subsequently centrifuged for 30 minutes at 44,000 g to collect the membrane fraction. The membrane pellet is resuspended in GnRH binding buffer (10 mM HEPES, pH 7.5, 150 mM NaCl and 0.1% BSA) and aliquots immediately snap-frozen in liquid nitrogen and stored at −80° C. Protein content of the membrane suspension is determined using the Bio-Rad protein assay kit (Bio-Rad).
RBL cells stably transfected with the human GnRH receptor are grown to 80% confluency prior to harvesting. The cells are incubated at 37° C. for 10 min in 0.5 mM EDTA/PBS (Ca^++, Mg^++ free), and are dislodged from the plate by gentle rapping of the flasks. Cells are collected and pelleted by centrifugation at 1000 g for 5 minutes. Cell pellets are resuspended in buffer (DPBS supplemented with 10 mM MgCl2, 2 mM EGTA, pH=7.4), and cell lysis is performed using a pressure cell and applying N2 at a pressure of 900 psi for 30 min at 4° C. Unbroken cells and larger debris were removed by centrifugation at 1200 g for 10 min at 4° C. The cell membrane supernatant is then centrifuged at 45,000 g and the resulting membrane pellet is resuspended in assay buffer and homogenized on ice using a tissue homogenizer. Protein concentrations are determined using the Coomassie Plus Protein Reagent kit. Membranes are aliquoted and stored at −80° C. until ready for use.
COS-7 cells transiently transfected with GnRH receptors from different species (human, macaque, dog, rabbit, rat) or mutant GnRH receptors are prepared by bulk electroporation. COS-7 cells are obtained from American Type Cell Culture (Manassas, Va.) and are maintained in Dulbeccos's modified Eagle's medium (DMEM) (MediaTech Inc., Herndon, Va.) containing 10% fetal bovine serum, 10 mM HEPES, 2 mM L-glutamine, 1 mM sodium pyruvate, 50 U/mL penicillin, 50 μg/mL streptomycin. COS-7 cells are seeded in 500 cm^2 tissue culture plates and grown to confluency prior to cell transfection. […]

COc1ccccc1N(C)C(=O)c1ccc(Cl)c(-c2ccc(C#N)nc2)c1 [2-2, 4-chloro-3-(6-cyano-pyridin-3-yl)-N-(2-methoxy-phenyl)-N-methyl-benzamide]
Ki: ≤ 100 nM

COc1ccccc1N(C)C(=O)c1ccc(Cl)c(-c2cnc(Cl)cc2Cl)c1 [2-3]
Ki: ≤ 100 nM

COc1ccccc1N(C)C(=O)c1ccc(Cl)c(-c2ccc(Cl)nc2Cl)c1 [2-6]
Ki: ≤ 100 nM

COc1ccccc1N(C)C(=O)c1ccc(Cl)c(-c2cnc(C)cc2Cl)c1 [2-8]
Ki: ≤ 100 nM

COc1ccccc1N(C)C(=O)c1ccc(Cl)c(-c2cnc(C)cc2C)c1 [2-9]
Ki: ≤ 100 nM

COc1ccccc1N(C)C(=O)c1ccc(Cl)c(-c2cnc(C#N)cc2C)c1 [2-10, 4-chloro-3-(6-cyano-4-methyl-pyridin-3-yl)-N-(2-methoxy-phenyl)-N-methyl-benzamide]
Ki: ≤ 100 nM

COc1ccccc1N(C)C(=O)c1ccc(Cl)c(-c2ccc(C(F)(F)F)nc2)c1 [2-11]
Ki: ≤ 100 nM

COc1ccccc1N(C)C(=O)c1ccc(Cl)c(-c2cnc(C(F)(F)F)cc2C)c1 [2-12]
Ki: ≤ 100 nM

COc1ccccc1N(C)C(=O)c1ccc(Cl)c(-c2cnc(C(F)(F)F)cc2C#N)c1 [2-14]
Ki: ≤ 100 nM

Cc1ccccc1N(C)C(=O)c1ccc(Cl)c(-c2ccc(Cl)nc2)c1 [2-15]
Ki: ≤ 100 nM

Cc1cc(Cl)c(-c2cc(C(=O)N(C)c3ccccc3C)ccc2Cl)cn1 [2-16]
Ki: ≤ 100 nM

Cc1cc(Cl)ncc1-c1cc(C(=O)N(C)c2ccccc2C)ccc1Cl [2-18]
Ki: ≤ 100 nM

Cc1cc(Cl)c(-c2cc(C(=O)N(C)c3c(C)cccc3C)ccc2Cl)cn1 [2-19]
Ki: ≤ 100 nM

Cc1cc(Cl)c(-c2cc(C(=O)N(C)c3cccc(C)c3C)ccc2Cl)c(C)n1 [2-21]
Ki: ≤ 100 nM

Cc1cc(Cl)c(-c2cc(C(=O)N(C)c3cccc(C)c3C)ccc2Cl)cn1 [2-22]
Ki: ≤ 100 nM

Cc1cc(Cl)c(-c2cc(C(=O)N(C)c3cccc(C(F)(F)F)c3C)ccc2Cl)cn1 [2-24]
Ki: ≤ 100 nM

Cc1cc(Cl)c(-c2cc(C(=O)N(C)c3cccc(C(F)(F)F)c3C)ccc2Cl)c(C)n1 [2-25]
Ki: ≤ 100 nM

COc1cc(C)c(-c2cc(C(=O)N(C)c3c(C)cccc3OC)ccc2Cl)cn1 [2-26]
Ki: ≤ 100 nM

COc1cccc(C)c1N(C)C(=O)c1ccc(Cl)c(-c2cnc(C)cc2Cl)c1 [2-27]
Ki: ≤ 100 nM

COc1cccc(C)c1N(C)C(=O)c1ccc(Cl)c(-c2cnc(Cl)cc2Cl)c1 [2-29]
Ki: ≤ 100 nM

COc1cccc(C)c1N(C)C(=O)c1ccc(Cl)c(-c2cnc(Cl)cc2C)c1 [2-31, 4-chloro-3-(6-chloro-4-methyl-pyridin-3-yl)-N-(2-methoxy-6-methyl-phenyl)-N-methyl-benzamide]
Ki: ≤ 100 nM

COc1cccc(C)c1N(C)C(=O)c1ccc(Cl)c(-c2cnc(C(F)(F)F)cc2C)c1 [2-33]
Ki: ≤ 100 nM

COc1cccc(C)c1N(C)C(=O)c1ccc(Cl)c(-c2cnc(C#N)cc2C)c1 [2-34]
Ki: ≤ 100 nM

COc1cccc(C)c1N(C)C(=O)c1ccc(Cl)c(-c2cnc(C(F)(F)F)cc2C#N)c1 [2-35]
Ki: ≤ 100 nM

Cc1cc(Cl)ncc1-c1cc(C(=O)N(C)c2ccccc2F)ccc1Cl [2-36]
Ki: ≤ 100 nM

Cc1cc(Cl)c(-c2cc(C(=O)N(C)c3ccccc3F)ccc2Cl)cn1 [2-37]
Ki: ≤ 100 nM

Cc1cc(Br)ncc1-c1cc(C(=O)N(C)c2ccccc2F)ccc1Cl [2-39]
Ki: ≤ 100 nM

COc1c(Cl)cccc1N(C)C(=O)c1ccc(Cl)c(-c2cnc(Cl)cc2C)c1 [2-42]
Ki: ≤ 100 nM

COc1cc(C)c(-c2cc(C(=O)N(C)c3cccc(Cl)c3OC)ccc2Cl)cn1 [2-45]
Ki: ≤ 100 nM

COc1c(Cl)cccc1N(C)C(=O)c1ccc(Cl)c(-c2cnc(C)cc2Cl)c1 [2-46]
Ki: ≤ 100 nM

COc1ccccc1N(C)C(=O)c1ccc(Cl)c(-c2nc3ccccc3cc2C=O)c1 [2-48]
Ki: ≤ 100 nM

COc1ccccc1N(C)C(=O)c1ccc(Cl)c(-c2nc3ccccc3cc2C#N)c1 [2-49]
Ki: ≤ 100 nM

COc1ccccc1N(C)C(=O)c1ccc(Cl)c(-c2ncnc3scc(C)c23)c1 [2-50]
Ki: ≤ 100 nM

COc1ccccc1N(C)C(=O)c1ccc(Cl)c(-c2ccc(C(F)(F)F)cc2C#N)c1 [2-53]
Ki: ≤ 100 nM

COc1ccccc1N(C)C(=O)c1ccc(Cl)c(-c2ccc(Cl)cc2Cl)c1 [2-54]
Ki: ≤ 100 nM

COc1ccccc1N(C)C(=O)c1ccc(Cl)c(-c2ccc(Cl)cc2C#N)c1 [2-55]
Ki: ≤ 100 nM

COc1ccccc1N(C)C(=O)c1ccc(Cl)c(-c2ncc(Cl)cc2C)c1 [2-57]
Ki: ≤ 100 nM

COc1ccccc1N(C)C(=O)c1ccc(Cl)c(-c2ncc(C)cc2Cl)c1 [2-58]
Ki: ≤ 100 nM

COc1ccccc1N(C)C(=O)c1ccc(Cl)c(-c2ncc(F)cc2F)c1 [2-59]
Ki: ≤ 100 nM

COc1ccccc1N(C)C(=O)c1ccc(Cl)c(-c2ncc(C)cc2C)c1 [2-60]
Ki: ≤ 100 nM

Cc1cc(Cl)cnc1-c1cc(C(=O)N(C)c2ccccc2F)ccc1Cl [2-62]
Ki: ≤ 100 nM

Cc1cc(Cl)cnc1-c1cc(C(=O)N(C)c2c(C)cccc2C)ccc1Cl [2-63]
Ki: ≤ 100 nM

Cc1cnc(-c2cc(C(=O)N(C)c3c(C)cccc3C)ccc2Cl)c(Cl)c1 [2-64]
Ki: ≤ 100 nM

Cc1cccc(C)c1N(C)C(=O)c1ccc(Cl)c(-c2ncc(C(F)(F)F)cc2Cl)c1 [2-65]
Ki: ≤ 100 nM

Cc1cnc(-c2cc(C(=O)N(C)c3cccc(C)c3C)ccc2Cl)c(Cl)c1 [2-67]
Ki: ≤ 100 nM

Cc1cnc(-c2cc(C(=O)N(C)c3cccc(C)c3C)ccc2Cl)c(C)c1 [2-68]
Ki: ≤ 100 nM

COc1cccc(C)c1N(C)C(=O)c1ccc(Cl)c(-c2ncc(Cl)cc2Cl)c1 [2-69]
Ki: ≤ 100 nM

COc1c(Cl)cccc1N(C)C(=O)c1ccc(Cl)c(-c2ncc(C)cc2C)c1 [2-70]
Ki: ≤ 100 nM

Cc1cc(Cl)cnc1-c1cc(C(=O)N(C)c2cccc(C)c2C)ccc1Cl [2-71]
Ki: ≤ 100 nM

COC(=O)c1ccccc1N(C)C(=O)c1ccc(Cl)c(-c2ncc(Cl)cc2C)c1 [2-72]
Ki: ≤ 100 nM

COC(=O)c1ccccc1N(C)C(=O)c1ccc(Cl)c(-c2ncc(C(F)(F)F)cc2Cl)c1 [2-75]
Ki: ≤ 100 nM

CN(C(=O)c1ccc(Cl)c(-c2ncc(C(F)(F)F)cc2Cl)c1)c1ccccc1F [2-76]
Ki: ≤ 100 nM

COC(=O)c1ccccc1N(C)C(=O)c1ccc(Cl)c(-c2ncc(C)cc2Cl)c1 [2-77]
Ki: ≤ 100 nM

COc1ccccc1N(C)C(=O)c1ccc(Cl)c(-c2nc3ccccc3cc2C)c1 [2-79]
Ki: ≤ 100 nM

COc1ccccc1N(C)C(=O)c1ccc(Cl)c(-c2nc(C)c(Cl)cc2Cl)c1 [2-80]
Ki: ≤ 100 nM

CSc1ccccc1N(C)C(=O)c1ccc(Cl)c(-c2cnc(C(F)(F)F)cc2C#N)c1 [2-81]
Ki: ≤ 100 nM

COC(=O)COc1ccccc1N(C)C(=O)c1ccc(Cl)c(-c2cnc(Cl)cc2C)c1 [3-1, (2-{[4-chloro-3-(6-chloro-4-methyl-pyridin-3-yl)-benzoyl]-methyl-amino}-phenoxy)-acetic acid methyl ester]
Ki: ≤ 100 nM

COC(=O)CCCOc1ccccc1N(C)C(=O)c1ccc(Cl)c(-c2cnc(Cl)cc2C)c1 [3-2]
Ki: ≤ 100 nM

COC(=O)COc1ccccc1N(C)C(=O)c1ccc(Cl)c(-c2cnc(C#N)cc2C)c1 [3-3]
Ki: ≤ 100 nM

COC(=O)COc1ccccc1N(C)C(=O)c1ccc(Cl)c(-c2cnc(C)cc2Cl)c1 [3-4]
Ki: ≤ 100 nM

COC(=O)CCCOc1cccc(C)c1N(C)C(=O)c1ccc(Cl)c(-c2cnc(Cl)cc2C)c1 [3-5]
Ki: ≤ 100 nM

Source: US8481738B2, “Gonadotropin-releasing hormone receptor antagonists and methods relating thereto” (Neurocrine Biosciences, Inc., priority 2007, dated 2013)
